Measured values as given in patent publication US8846860B2, “Methods of decorating hydroxyapatite biomaterials with modular biologically active molecules” (Wisconsin Alumni Research Foundation, priority 2009, dated 2014).
Non-standard residues stand in square brackets, D forms with d. No end group written: not given here. Gla = N[C@@H](CC(C(=O)O)C(=O)O)C(=O)O

Tests used:
hMSCs [1] = experiment: Mineralized tissue formation by hMSCs (Alizarin Red-S staining); assay type: cell-based, human; details: soluble peptide (50 μg in 500 μl) with osteogenic supplements, hMSCs on TCP, day 20
Method: (§1) hMSCs (Cambrex, Walkersville, Md., passages 5-6) were cultured in mesenchymal stem cell growth medium (MSCGM: Cambrex) consisting of MSC Basal Medium supplemented with 10% fetal bovine serum, L-glutamine, 100 units/ml penicillin, and 0.1 mg/ml streptomycin. 2.5×10^4 hMSCs were seeded onto either tissue culture-treated polystyrene (TCP) or four different types of experimental substrates (1 cm^2) (PLG, HA-coated PLG, eBGu3-treated HA coating, or eBGa3-treated HA coating). hMSCs were allowed to attach to each substrate overnight, then cultured in MSCGM with osteogenic culture supplements (OS) (0.1 μM dexamethasone, 50 μg/ml ascorbic acid, and 10 mM β-glycerophosphate) for 24 days. The effects of soluble peptides included in culture medium were evaluated by adding 50 μg of eBGu3 or eBGa3 peptides to hMSC cultures on TCP in 500 μl of medium with or without osteogenic culture supplements. In each experimental and control sample, whole volume medium changes were performed every 4 days by replacement with fresh medium and collected medium was used for BMP-2 and OCN ELISA assays.
Characterization of mineralized tissue growth was performed via Alizarin Red-S (ARS) staining at day 20. […] For quantification of staining, 400 μl 10% (v/v) acetic acid was added to each well for 30 minutes with shaking. […] Aliquots (100 μl) of the supernatant were read in triplicate at 405 nm in 96-well plate reader.

hMSCs [2] = experiment: Alkaline phosphatase (ALP) activity in hMSCs; assay type: cell-based, human; details: soluble peptide (50 μg in 500 μl) with osteogenic supplements, hMSCs on TCP, day 12
Method: as §1, with “In each experimental and control sample, whole volume medium changes were performed every 4 days by replacement with fresh medium and collected medium was used for BMP-2 and OCN ELISA assays.” left out
The biological activity of modular peptides was initially assayed by their ability to enhance ALP activity in hMSCs. […] ALP activity was measured at 405 nm, and calculated as the ratio of p-nitrophenol released to total DNA concentration (nmol/min/μg DNA). To determine the amount of total DNA in each well, the cell nuclei were disrupted by addition of the aforementioned lysis buffer followed by centrifugation, and quantified using the CyQUANT Assay Kit (Molecular Probes, Eugene, Oreg.).

[3] = test system: mouse yolk sac endothelial C166-GFP cells; experiment: C166-GFP cell proliferation with soluble peptides (CYQUANT); assay type: cell-based; details: soluble peptide, 48 hours of stimulation, compared to a control
Method: To determine biological activity of VEGF portion for promoting cell proliferation, mouse yolk sac endothelial C166-GFP cells were seeded at a density of 3.12×10^3 cells/cm^2 (1×10^3 cells per well) in 96-well plate, allowed to attach for six hours, and then stimulated with either VEGF-OCN or VEGF-mimic After 48 hours of stimulation, optical micrographs were taken using Olympus IX-51 microscope and cell numbers were determined by CYQUANT assay.

[4] = Binding of VEGF-OCN and VEGF-mimic to HA particle / HA slab
Method: To measure the binding efficiency of modular peptides to the HA-coated PLG films and to gain preliminary insight into the properties that influence modular peptide immobilization, we first exposed 1 cm^2 HA-coated PLG films to PBS solutions containing 500 μg (1 mg/ml) of 5(6) FAM-conjugated eBMP-2, eBGu1, eBGu3, eBGa1, or eBGa3 modular peptide solution (See Table 1 for definitions of these abbreviations). The films were incubated in peptide solutions with constant agitation for 4 hours at 37° C., and the amount of free peptide remaining was determined by measuring the fluorescence emission of the solution (excitation: 494 nm; emission 519 nm) using a Synergy HT Multi-Detection Microplate Reader (BioTek, Winooski, Vt.), and comparing this emission to standard samples with known concentrations of 5(6)-FAM. To further characterize surface immobilization of the peptide with the highest binding efficiency—the eBGa3 peptide—1 cm^2 HA-coated films were incubated in various concentrations (50-750 μM) of 5(6)-FAM-conjugated eBGa3 peptide for 4 hours with constant agitation at 37° C. The amount of peptide bound to HA-coated film was again determined by fluorescence analysis, as described above.
The binding behavior of the peptides (both modular peptide, VEGF-OCN (SEQ ID NO:18), and VEGF-mimic) were analyzed and compared as described above. The amount of bound VEGF-OCN on the HA particle increased with peptide concentration and reached saturation at 15 μM (FIG. 8A).

[5] = test system: mouse yolk sac endothelial C166-GFP cells; experiment: C166-GFP cell proliferation on peptide-treated HA slabs (CYQUANT); assay type: cell-based; details: peptide-treated HA slab, 2-day culture, compared to control
Method: Cells were again seeded at a density of 2×10^4 cells/cm^2 (4×10^4 cells per well) in 24-well plate. Prior to seeding, HA slabs (1 cm×1 cm) were incubated in peptide solution (PBS) for four hours at 37° C. and copiously rinsed with deionized water, and then placed in a well of the 24-well plate. After 1-day culture, cells were treated with 2 μM calcein AM solution, and imaged using Olympus IX-51 microscope.
Additionally, a cell number count of the C166-GFP cells as cultured in the presence of VEGF-OCN or VEGF mimic was determined For the cell count, cells were seeded at a density of 5×10^3 cells/cm^2 (1×10^4 cells per well) in a 24-well plate. After 2-day culture, cells were detached from the HA slab and cell number was assessed using CYQUANT assay.

amount bound to HA slab ([4]; HA slab, qualitative comparison) | peptide concentration at which bound amount reached saturation ([4]; HA particle) [µM] | time to complete binding to HA particle ([4]; HA particle) | Substance | effect on mineralized tissue formation (hMSCs [1]) | effect on ALP activity (hMSCs [2]) | cell number [3] | cell number [5]
 |  |  | KIPKASSVPTELSAISTLYLAAAAEPRREVAEL [eBGu3] | no significant differences between the positive effects of eBGu3 and eBGa3 | no significant differences between the positive effects of eBGu3 and eBGa3 |  | 
 |  |  | KIPKASSVPTELSAISTLYLAAAAγEPRRγEVAγEL (KIPKASSVPTELSAISTLYLAAAA[Gla]PRR[Gla]VA[Gla]L-NH2; N-terminus assumed; SMILES CC[C@H](C)[C@H](NC(=O)[C@H](C)NC(=O)[C@H](CO)NC(=O)[C@H](CC(C)C)NC(=O)[C@H](CCC(=O)O)NC(=O)[C@@H](NC(=O)[C@@H]1CCCN1C(=O)[C@@H](NC(=O)[C@H](CO)NC(=O)[C@H](CO)NC(=O)[C@H](C)NC(=O)[C@H](CCCCN)NC(=O)[C@@H]1CCCN1C(=O)[C@@H](NC(=O)[C@@H](N)CCCCN)[C@@H](C)CC)C(C)C)[C@@H](C)O)C(=O)N[C@@H](CO)C(=O)N[C@H](C(=O)N[C@@H](CC(C)C)C(=O)N[C@@H](Cc1ccc(O)cc1)C(=O)N[C@@H](CC(C)C)C(=O)N[C@@H](C)C(=O)N[C@@H](C)C(=O)N[C@@H](C)C(=O)N[C@@H](C)C(=O)N[C@@H](CC(C(=O)O)C(=O)O)C(=O)N1CCC[C@H]1C(=O)N[C@@H](CCCNC(=N)N)C(=O)N[C@@H](CCCNC(=N)N)C(=O)N[C@@H](CC(C(=O)O)C(=O)O)C(=O)N[C@H](C(=O)N[C@@H](C)C(=O)N[C@@H](CC(C(=O)O)C(=O)O)C(=O)N[C@@H](CC(C)C)C(N)=O)C(C)C)[C@@H](C)O) [eBGa3] | significantly increased | significantly increased ALP activity |  | 
much less than that of VEGF-OCN |  |  | KLTWQELYQLKYKGI [VEGF-mimic, First synthesized by Pedon, et al., inspired by the VEGF helical region, reference compound] |  |  | increase in cell number to the similar extent when compared to a control | 
 | 15 | completed within five minutes | KLTWQELYQLKYKGI-GGGAAAA-γEPRRγEVAγEL (KLTWQELYQLKYKGIGGGAAAA[Gla]PRR[Gla]VA[Gla]L) [VEGF-OCN] |  |  | increase in cell number to the similar extent when compared to a control | promoted cell proliferation
